According to patent US20230120597A1, “CO-AGONISTS AT GLP-1 AND GIP RECEPTORS SUITABLE FOR ORAL DELIVERY” (Novo Nordisk A/S, priority 2020, published 2023):
Like-named read-outs stand apart in the source and are kept apart here. Starred links: 1 amine or outer side, 2 acyl side, 3 side chain; linkers in the order of their positions; H or OH if unused. Non-standard residues stand in square brackets, D forms with d. Residues, ends and D or L forms follow the SMILES beside them. Groups on a side chain read outwards from the residue. *: point of attachment. C18 diacid = O=C(O)CCCCCCCCCCCCCCCCC(=O)*; γGlu = O=C(O)[C@H](CCC(=O)[*:2])N[*:1]; εLys = N[C@@H](CCCCN[*:1])C(=O)[*:2]; AEEA = NCCOCCOCC(=O)O; Aib = CC(C)(N)C(=O)O

Key:
[1] = in vivo; cited from earlier work
[2] = biological target: T1, human GIP receptor (Homo sapiens, UniProt P48546); test: In vitro functional potency, CRE luciferase reporter gene assay, whole BHK cells expressing hGIPR; format: cell-based; conditions: BHK CRE luc2P hGIPR cells
T1 construct: expressed in transfected cells; host or cells: BHK (parent line BHKTS13), clone BHK CRE luc2P hGIPR
T1 sequence (P48546 22-466): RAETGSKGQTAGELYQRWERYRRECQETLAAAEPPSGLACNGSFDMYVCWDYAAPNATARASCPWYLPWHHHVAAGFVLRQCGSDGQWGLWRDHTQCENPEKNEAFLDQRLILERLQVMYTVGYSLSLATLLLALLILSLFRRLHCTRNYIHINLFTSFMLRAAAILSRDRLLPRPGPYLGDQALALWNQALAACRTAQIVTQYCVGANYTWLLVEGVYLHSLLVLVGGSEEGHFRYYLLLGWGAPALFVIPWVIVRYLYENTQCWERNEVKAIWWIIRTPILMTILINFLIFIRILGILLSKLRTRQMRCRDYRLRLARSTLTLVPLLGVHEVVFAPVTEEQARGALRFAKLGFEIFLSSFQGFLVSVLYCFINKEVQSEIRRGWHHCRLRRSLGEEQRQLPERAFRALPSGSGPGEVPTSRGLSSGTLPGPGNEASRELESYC
Description: (§1) The in vitro functional potency is the measure of target receptor activation in a whole cell assay.
(§2) In vitro functional potency was determined by measuring the response of the target receptor in a reporter gene assay in individual cell lines. […] When the respective receptor is activated, it results in the production of cAMP, which in turn results in expression of the luciferase protein. When assay incubation is completed, luciferase substrate (luciferin) is added resulting in the enzymatic conversion of luciferin to oxyluciferin and producing bioluminescence. The luminescence is measured as the readout for the assay.
(§3) The cells lines used in these assays were BHK cells with BHKTS13 as a parent cell line. The cell lines were derived from a clone containing the CRE luciferase element and were established by further transfection with the respective human receptor to obtain the relevant cell line: BHK CRE luc2P hGLP-1R or BHK CRE luc2P hGIPR. The cells were cultured at 37° C. with 5% CO2 in Cell Culture Medium. They were aliquoted and stored in liquid nitrogen. The cells were kept in continuous culture and were seeded out the day before each assay.
(§4) GLP-1R Cell Culture Medium consisted of DMEM medium with 10% FBS, 500 μg/mL G418, and 300 μg/mL hygromycin. GIPR Cell Culture Medium consisted of DMEM medium with 10% FBS, 400 μg/mL G418, and 300 μg/mL hygromycin. Assay Buffer consisted of DMEM w/o phenol red, 10 mM Hepes, 1× Glutamax. 1% ovalbumin, and 0.1% Pluronic F-68 with the addition of HSA at twice the final assay concentration.
(§5) Procedure • 1) Cells were plated at 5000 cells/well and incubated overnight in the assay plate. • 2) Cells were washed once in DPBS. • 3) Stocks of the test compounds and reference compounds in concentrations ranging from […] were diluted 1:150 in Assay Buffer. Compounds were then diluted 1:10 in column 1 of a 96 deep well dilution plate and then carried across the row creating a 3.5 fold, 12 point dilution curve. • 4) Assay Buffer (50 μl aliquot) with or without HSA was added to each well in the assay plate. • 5) A 50 μl aliquot of compound or blank was transferred from the dilution plate to the assay plate containing the Assay Buffer with or without HSA. • 6) The assay plate was incubated for 3 h in a 5% CO2 incubator at 37° C. • 7) The cells were washed once with DPBS. • 8) A 100 μl aliquot of DPBS was added to each well of the assay plate. • 9) A 100 μl aliquot of steadylite plus reagent (light sensitive) was added to each well of the assay plate. • 10) Each assay plate was covered with aluminum foil to protect it from light and shaken at 250 RPM for 30 min at room temperature. • 11) Each assay plate was read in a microtiter plate reader.
(§6) The data from the microtiter plate reader was first regressed in an Excel in order to calculate the x-axis, log scale concentrations based on the individual test compound's stock concentration and the dilutions of the assay. […] The software performs a non-linear regression (log(agonist) vs response). A minimum of two replicates was measured for each sample. The reported values are averages of the replicates.

[3] = biological target: T2, human GLP-1 receptor (Homo sapiens, UniProt P43220); test: In vitro functional potency, CRE luciferase reporter gene assay, whole BHK cells expressing hGLP-1R; format: cell-based; conditions: BHK CRE luc2P hGLP-1R cells
T2 construct: expressed in transfected cells; host or cells: BHK (parent line BHKTS13), clone BHK CRE luc2P hGLP-1R
T2 sequence (P43220 24-463): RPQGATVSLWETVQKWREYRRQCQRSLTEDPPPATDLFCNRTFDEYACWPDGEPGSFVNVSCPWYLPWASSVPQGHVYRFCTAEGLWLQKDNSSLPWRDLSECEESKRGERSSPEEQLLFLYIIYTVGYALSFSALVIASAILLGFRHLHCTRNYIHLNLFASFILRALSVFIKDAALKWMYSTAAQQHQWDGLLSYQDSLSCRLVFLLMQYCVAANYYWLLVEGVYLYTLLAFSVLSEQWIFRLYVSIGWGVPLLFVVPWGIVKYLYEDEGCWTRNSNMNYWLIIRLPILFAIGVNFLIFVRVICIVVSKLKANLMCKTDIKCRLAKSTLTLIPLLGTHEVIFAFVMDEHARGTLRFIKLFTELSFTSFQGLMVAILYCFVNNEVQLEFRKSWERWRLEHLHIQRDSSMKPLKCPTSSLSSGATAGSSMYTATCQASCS
Description: as §1, §2, §3, §4, §5, §6

[4] = Pharmacokinetic study in dogs, oral dosing of tablet compositions with SNAC; format: in vivo, Beagle dogs; conditions: for Tmax / half-life: male
Outline: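 The tablets held 3-4 mg compound plus 100-300 mg SNAC and were given to fasted male beagles (6-8 per group); non-compartmental PK per animal.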

[5] = 0% HSA, read-out: hGIPR, CRE Luc 0% HSA EC50
[6] = hGIPR, CRE Luc 1% HSA EC50, 1% HSA
[7] = 0% HSA, read-out: hGLP-1R, CRE Luc 0% HSA EC50
[8] = hGLP-1R, CRE Luc 1% HSA EC50, 1% HSA

Molecule | half-life measured in man [1] [min] | EC50 [2, 5] [nM] | EC50 [2, 6] [nM] | EC50 [3, 7] [nM] | EC50 [3, 8] [nM] | AUC/Dose ([4]; dog, in vivo, po) [kg·h/L] | Tmax ([4]; beagle, dog, in vivo, po, Tmax) [h] | half-life ([4]; beagle, dog, in vivo, po, t1/2) [h] | EC50 ([2]; hGIPR, CRE Luc 0% HSA EC50, 0% HSA) [nM] | EC50 ([3]; hGLP-1R, CRE Luc 0% HSA EC50, 0% HSA) [nM] | half-life ([4]; dog, in vivo, oral tablet, SNAC 100 mg, test substance 3 mg, Beagle dogs, harmonic mean, read-out: t1/2 (converted)) [h] | Tmax ([4]; dog, in vivo, oral tablet, SNAC 100 mg, test substance 3 mg, Beagle dogs, median, read-out: Tmax) [h] | AUC/Dose ([4]; oral tablet, SNAC 100 mg, test substance 3 mg, Beagle dogs, arithmetic mean) [kg·h/L]
hGLP-1: human glucagon-like peptide 1, native hormone whose half-life in man is cited from Meier et al. | 2 to 4 |  |  |  |  |  |  |  |  |  |  |  | 
CC[C@H](C)[C@H](NC(=O)[C@H](Cc1ccccc1)NC(=O)[C@H](CCC(=O)O)NC(=O)[C@H](CCCNC(=N)N)NC(=O)[C@H](C)NC(=O)[C@H](C)NC(=O)[C@H](CCC(N)=O)NC(=O)[C@H](CCCCNC(=O)COCCOCCNC(=O)COCCOCCNC(=O)CC[C@H](NC(=O)CCCCCCCCCCCCCCCCC(=O)O)C(=O)O)NC(=O)[C@H](CCC(=O)O)NC(=O)[C@H](CC(C)C)NC(=O)[C@H](Cc1ccc(O)cc1)NC(=O)[C@@H](NC(=O)[C@H](CO)NC(=O)[C@H](Cc1ccc(O)cc1)NC(=O)[C@H](CC(=O)O)NC(=O)[C@H](CO)NC(=O)[C@@H](NC(=O)[C@H](Cc1ccccc1)NC(=O)[C@@H](NC(=O)CNC(=O)[C@H](CCC(=O)O)NC(=O)C(C)(C)NC(=O)[C@@H](N)Cc1ccc(O)cc1)[C@@H](C)O)[C@@H](C)O)[C@@H](C)CC)C(=O)N[C@@H](CCC(=O)O)C(=O)N[C@@H](Cc1c[nH]c2ccccc12)C(=O)N[C@@H](CC(C)C)C(=O)N[C@@H](CC(C)C)C(=O)N[C@@H](C)C(=O)NCC(=O)NCC(=O)N1CCC[C@H]1C(=O)N[C@@H](CO)C(=O)N[C@@H](CO)C(=O)NCC(=O)N[C@@H](C)C(=O)N1CCC[C@H]1C(=O)N1CCC[C@H]1C(=O)N1CCC[C@H]1C(=O)N[C@@H](CO)C(=O)O [Compound No. 10] (H-Y[Aib]EGTFTSDYSIYLEK([AEEA-AEEA-γGlu-C18 diacid])QAAREFIEWLLAGGPSSGAPPPS-OH) |  | 0.0113 | 1.75 | 0.0039 | 0.94 | 8.4 | 1 | 36 |  |  |  |  | 
CC[C@H](C)[C@H](NC(=O)[C@H](Cc1ccccc1)NC(=O)[C@H](CCC(=O)O)NC(=O)[C@H](CCCNC(=N)N)NC(=O)[C@H](C)NC(=O)[C@H](C)NC(=O)[C@H](CCC(N)=O)NC(=O)[C@H](CCCCNC(=O)[C@@H](N)CCCCNC(=O)[C@@H](N)CCCCNC(=O)CC[C@H](NC(=O)CCCCCCCCCCCCCCCCC(=O)O)C(=O)O)NC(=O)[C@H](CCC(=O)O)NC(=O)[C@H](CC(C)C)NC(=O)[C@H](Cc1ccc(O)cc1)NC(=O)[C@@H](NC(=O)[C@H](CO)NC(=O)[C@H](Cc1ccc(O)cc1)NC(=O)[C@H](CC(=O)O)NC(=O)[C@H](CO)NC(=O)[C@@H](NC(=O)[C@H](Cc1ccccc1)NC(=O)[C@@H](NC(=O)CNC(=O)[C@H](CCC(=O)O)NC(=O)C(C)(C)NC(=O)[C@@H](N)Cc1ccc(O)cc1)[C@@H](C)O)[C@@H](C)O)[C@@H](C)CC)C(=O)N[C@@H](CC(N)=O)C(=O)N[C@@H](Cc1c[nH]c2ccccc12)C(=O)N[C@@H](CC(C)C)C(=O)N[C@@H](CC(C)C)C(=O)N[C@@H](C)C(=O)NCC(=O)NCC(=O)N1CCC[C@H]1C(=O)N[C@@H](CO)C(=O)N[C@@H](CO)C(=O)NCC(=O)N[C@@H](C)C(=O)N1CCC[C@H]1C(=O)N1CCC[C@H]1C(=O)N1CCC[C@H]1C(=O)N[C@@H](CO)C(=O)O [Compound No. 11] (H-Y[Aib]EGTFTSDYSIYLEK([εLys-εLys-γGlu-C18 diacid])QAAREFINWLLAGGPSSGAPPPS-OH; N-terminus assumed) |  | 0.0099 | 0.45 | 0.0033 | 0.132 | 7.1 | 1.4 | 34 |  |  |  |  | 
CC[C@H](C)[C@H](NC(=O)[C@H](Cc1ccccc1)NC(=O)[C@H](CCC(=O)O)NC(=O)[C@H](CCCNC(=N)N)NC(=O)[C@H](C)NC(=O)[C@H](C)NC(=O)[C@H](CCC(N)=O)NC(=O)[C@H](CCCCNC(=O)[C@@H](N)CCCCNC(=O)[C@@H](N)CCCCNC(=O)CC[C@H](NC(=O)CCCCCCCCCCCCCCCCC(=O)O)C(=O)O)NC(=O)[C@H](CCC(=O)O)NC(=O)[C@H](CC(C)C)NC(=O)[C@H](Cc1ccc(O)cc1)NC(=O)[C@@H](NC(=O)[C@H](CO)NC(=O)[C@H](Cc1ccc(O)cc1)NC(=O)[C@H](CC(=O)O)NC(=O)[C@H](CO)NC(=O)[C@@H](NC(=O)[C@H](Cc1ccccc1)NC(=O)[C@@H](NC(=O)CNC(=O)[C@H](CCC(=O)O)NC(=O)C(C)(C)NC(=O)[C@@H](N)Cc1ccc(O)cc1)[C@@H](C)O)[C@@H](C)O)[C@@H](C)CC)C(=O)N[C@@H](CCC(=O)O)C(=O)N[C@@H](Cc1c[nH]c2ccccc12)C(=O)N[C@@H](CC(C)C)C(=O)N[C@@H](CC(C)C)C(=O)N[C@@H](CCCNC(=N)N)C(=O)NCC(=O)NCC(=O)N1CCC[C@H]1C(=O)N[C@@H](CCC(=O)O)C(=O)N[C@@H](CO)C(=O)NCC(=O)N[C@@H](C)C(=O)N1CCC[C@H]1C(=O)N1CCC[C@H]1C(=O)N1CCC[C@H]1C(=O)N[C@@H](CO)C(=O)O [Compound No. 13] (H-Y[Aib]EGTFTSDYSIYLEK([εLys-εLys-γGlu-C18 diacid])QAAREFIEWLLRGGPESGAPPPS-OH) |  |  | 0.257 |  | 0.204 |  |  |  | 0.0139 | 0.0074 | 60 | 1.5 | 14.8
